Reference: patent publication US8546608B2, “Proteasome inhibitors and methods of using the same” (Cephalon, Inc., priority 2003, dated 2013)

Experiments:
[1] = target: T1, proteasome in Molt-4 cells (human leukemia) (Homo sapiens, UniProt P20618+P28074); assay type: cell-based; settings: assay of Example E, inhibition of MOLT4; read-out: MOLT4 (EC50)
T1 sequence (P28074 60-263): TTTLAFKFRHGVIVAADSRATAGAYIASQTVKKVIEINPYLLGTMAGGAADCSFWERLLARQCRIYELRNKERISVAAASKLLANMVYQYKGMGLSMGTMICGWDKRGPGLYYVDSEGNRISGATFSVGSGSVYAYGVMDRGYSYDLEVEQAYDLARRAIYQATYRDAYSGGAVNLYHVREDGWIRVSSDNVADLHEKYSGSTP
T1 sequence (P20618 29-241): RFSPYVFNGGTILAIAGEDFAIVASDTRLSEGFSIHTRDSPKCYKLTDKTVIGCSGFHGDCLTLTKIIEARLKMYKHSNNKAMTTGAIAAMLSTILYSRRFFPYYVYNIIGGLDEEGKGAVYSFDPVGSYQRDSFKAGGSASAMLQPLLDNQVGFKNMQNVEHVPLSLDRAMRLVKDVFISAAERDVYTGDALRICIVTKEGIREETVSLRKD
Experimental: Cellular Assay for Chymotrypsin-like activity of Proteasome in Molt-4 Cell Line
The chymotrypsin-like activity of proteasome in Molt-4 cells (human leukemia) was assayed according to the following procedure. A brief description of the method was published previously (Harding et al., J. Immunol., 1995, 155, 1767).
Molt-4 cells were washed and resuspended in HEPES-buffered Saline (5.4 mM KCl, 120 mM NaCl, 25 mM Glucose, 1.5 mM MgSO4, 1 mM Na pyruvate, 20 mM Hepes) and plated in 96-well microtiter white plates to a final concentration of 6×10^6 cells/mL. Then various 5× proteasome inhibitor concentrations (or diluted DMSO for controls), prepared from 250×DMSO solutions by diluting 50-fold using HEPES-buffered saline, were added to the plate to a final 1× concentration. After 15 minutes incubation at 37° C., a fluorimetric cell permeable substrate (MeOSuc-FLF-AFC) (methoxysuccinyl-Phe-Leu-Phe-7-amido-4-trifluoromethylcoumarin) purchased from Enzyme Systems Products, catalogue number AFC-88, was added to each well at a final concentration of 25 μM from a stock solution of 20 mM in DMSO. Reaction volumes were 100 μl per well.
The concentration of free AFC was monitored every 1.5 min for 30 min ([…]) on a Polastar Optima, BMG Labtechnologies microplate reader, using an excitation wavelength of 390 nm and emission wavelength of 520 nm. Proteasome activity was determined under conditions in which substrate hydrolysis increased linearly with time and the change in fluorescent signal was proportional to the concentration of free AFC.
Determination of EC50 Values for Proteasome Inhibitors in MOLT-4 Cell Line
Inhibition of chymotrypsin-like activity of proteasome in Molt-4 cells was determined by incubating cells with various concentrations of putative inhibitors for 15 minutes at 37° C. prior to the addition of substrate. Each experimental condition was evaluated in triplicate, and replicate experiments were performed for the inhibitors described herein.

[2] = target: T2, 20S Human Erythrocyte Proteasome (HEP) (Homo sapiens, UniProt P20618+P28074); test: Chymotrypsin-like activity of 20S Human Erythrocyte Proteasome (HEP), IC50 determination; assay type: biochemical; settings: assay of Example C, inhibition of HEP
T2 construct: 20S Human Erythrocyte Proteasome (HEP), purchased from Immatics Biotechnologies Inc; purchased Immatics Biotechnologies Inc., Tübingen, Germany; host or cells: human erythrocytes (natural source)
Experimental: Assay for Chymotrypsin-like Activity of 20S Human Erythrocyte Proteasome (HEP)
Proteasome chymotrypsin-like activity of compounds of the invention was assayed according to the following procedure.
In 96-well microtiter plates, 20S Human Erythrocyte Proteasome (HEP), purchased from Immatics Biotechnologies Inc., Tübingen, Germany was plated at 0.2 μg/mL (about 0.6 nM catalytic sites) in 0.04% SDS 20 mM Tris buffer. A fluorimetric substrate Suc-LLVY-AMC (succinyl-Leu-Leu-Val-Tyr-7-amido-4-methylcoumarin), purchased from Sigma Inc., St. Louis, Mo., USA was added to a final concentration of 100 μM from a stock solution of 10 mM in dimethylsulfoxide. Reaction volumes were 100 μl per well. […] Proteasome activity was determined under conditions in which substrate hydrolysis increased linearly with time and the change in fluorescence signal was proportional to the concentration of free AMC.
Determination of IC50 Values for HEP and α-Chymotrypsin Inhibitors
Inhibition of the chymotrypsin-like activity of HEP and of bovine α-chymotrypsin was determined by incubating the enzyme with various concentrations of putative inhibitors for 15 minutes at 37° C. (or room temperature for α-chymotrypsin) prior to the addition of substrate. Each experimental condition was evaluated in triplicate, and replicate experiments were performed for the inhibitors described herein.

SMILES	EC50 [1]	IC50 [2]
CC(C)C[C@H](NC(=O)[C@H](CCCNC(=N)N[N+](=O)[O-])NC(=O)CC1C=CCC1)B1O[C@@H]2C[C@@H]3C[C@@H](C3(C)C)[C@]2(C)O1 (mixture of isomers) [D.3.59]	200 to 2000 nM	< 10 nM
CC(C)C[C@H](NC(=O)[C@H](CCCNC(=N)N[N+](=O)[O-])NC(=O)C(C)c1ccccc1)B(O)O (mixture of isomers) [D.7.4, Boronic acid, [(1R)-1-[[(2S)-5-[[imino(nitroamino)methyl]amino]-2[((2RS)-2-phenylpropanoyl)amino]-1-oxopentyl]amino]-3-methylbutyl]]	> 10000 nM	< 10 nM
CC(C)C[C@H](NC(=O)[C@H](CCCNC(=N)N[N+](=O)[O-])NC(=O)C1CCN(C(=O)OC(C)(C)C)CC1)B(O)O (racemic) [D.7.7, Boronic acid, [(1R)-1-[[(2S)-5-[[imino(nitroamino)methyl]amino]-2-[[(4RS)-1-[(1,1-dimethylethoxy)carbonyl]piperidine-4-carbonyl]amino]-1-oxopentyl]amino]-3-methylbutyl]]	> 10000 nM	< 10 nM
CC(C)C[C@H](NC(=O)[C@H](CCCNC(=N)N[N+](=O)[O-])NC(=O)C(CCCCCCCCC#N)C1CCCC1)B(O)O (mixture of isomers) [E.1.19, Boronic acid, [(1R)-1-[[(2S)-5-[[imino(nitroamino)methyl]amino]-2-[((RS)-10-cyano-2-cyclopentydecanoyl)amino]-1-oxopentyl]amino]-3-methylbutyl]]	200 to 2000 nM	< 10 nM
CCCCC(CC)CCC(=O)N[C@@H](CCCNC(=N)N[N+](=O)[O-])C(=O)N[C@@H](CC(C)C)B(O)O (mixture of isomers) [E.2.23, Boronic acid, [(1R)-1-[[(2S)-5-[[imino(nitroamino)methyl]amino]-2-[((RS)-4-ethyloctanoyl)amino]-1-oxopentyl]amino]-3-methylbutyl]]	200 to 2000 nM	< 10 nM
CCC(C)C(=O)N[C@@H](CCCNC(=N)N[N+](=O)[O-])C(=O)N[C@@H](CC(C)C)B(O)O (mixture of isomers) [E.2.35, Boronic acid, [(1R)-1-[[(2S)-5-[[immo(nitroamino)methyl]amino]-2-[((RS)-2-methylbutanoyl)amino]-1-oxopentyl]amino]-3-methylbutyl]]	> 10000 nM	< 10 nM
CCCCC(C)CCC(=O)N[C@@H](CCCNC(=N)N[N+](=O)[O-])C(=O)N[C@@H](CC(C)C)B(O)O (mixture of isomers) [E.2.39, Boronic acid, [(1R)-1-[[(2S)-5-[[imino(nitroamino)methyl]amino]-2-[((RS)-4-methyloctanoyl)amino]-1-oxopentyl]amino]-3-methylbutyl]]	200 to 2000 nM	< 10 nM
CCCCC(C(=O)N[C@@H](CCCNC(=N)N[N+](=O)[O-])C(=O)N[C@@H](CC(C)C)B(O)O)C1CCCC1 (mixture of isomers) [E.2.59, Boronic acid, [(1R)-1-[[(2S)-5-[[imino(nitroamino)methyl]amino]-2-[[(RS)-2-cyclopentylhexanoyl]amino]-1-oxopentyl]amino]-3-methylbutyl]]	2000 to 10000 nM	< 10 nM
CC(C)C[C@H](NC(=O)[C@H](CCCNC(=N)N[N+](=O)[O-])NC(=O)C(C)c1ccc(Cl)cc1)B(O)O (mixture of isomers) [E.2.76, Boronic acid, [(1R)-1-[[(2S)-5-[[imino(nitroamino)methyl]amino]-2-[[(RS)-2-(4-chlorophenyl)propanoyl]amino]-1-oxopcntyl]amino]-3-methylbutyl]]	2000 to 10000 nM	< 10 nM
CC(C)C[C@H](NC(=O)[C@H](CCCNC(=N)N[N+](=O)[O-])NC(=O)C1CCCCN1C(=O)OC(C)(C)C)B(O)O (mixture of isomers) [E.2.81, Boronic acid, [(1R)-1-[[(2S)-5-[[imino(nitroamino)methyl]amino]-2-[[(2RS)-1-[(1,1-dimethylethoxy)carbonyl]piperidine-2-carbonyl]amino]-1-oxopentyl]amino]-3-methylbutyl]]	2000 to 10000 nM	< 100 nM
CC(C)C[C@H](NC(=O)[C@H](CCCNC(=N)N[N+](=O)[O-])NC(=O)c1ccc2ccccc2c1)B1O[C@@H]2C[C@@H]3C[C@@H](C3(C)C)[C@]2(C)O1 [D.1.1, Naphthalen-2-carboxamide,N-[(1S)-1-[[[(1R)-1-[(3aS,4S,6S,7aR)-hexahydro-3a,5,5-trimethyl-4,6-methano-1,3,2-benzodioxaborol-2-yl]-3-methylbutyl]amino]carbonyl]-4-[[imino(nitroamino)methyl]amino]butyl]]	< 200 nM	< 10 nM
CC(C)C[C@H](NC(=O)[C@H](CCCNC(=N)N[N+](=O)[O-])NC(=O)CC1CC2CCC1C2)B1O[C@@H]2C[C@@H]3C[C@@H](C3(C)C)[C@]2(C)O1 (stereo partly drawn) [D.3.89, 2-(Bicyclo[2.2.1]hept-2-yl)acetamide,N-[(1S)-1-[[[(1R)-1-[(3aS,4S,6S,7aR)-hexahydro-3a,5,5-trimethyl-4,6-methano-1,3,2-benzodioxaborol-2-yl]-3-methylbutyl]amino]carbonyl]-4-[[imino(nitroamino)methyl]amino]butyl]]		< 10 nM
CC(C)C[C@H](NC(=O)[C@H](CCCNC(=N)N[N+](=O)[O-])NC(=O)CCCCc1cccs1)B1O[C@@H]2C[C@@H]3C[C@@H](C3(C)C)[C@]2(C)O1 [D.3.115, 5-Thiophen-2-yl-pentanamide,N-[(1S)-1-[[[(1R)-1-[(3aS,4S,6S,7aR)-hexahydro-3a,5,5-trimethyl-4,6-methano-1,3,2-benzodioxaborol-2-yl]-3-methylbutyl]amino]carbonyl]-4-[[imino(nitroamino)methyl]amino]butyl]]		< 10 nM
CCCCCCCc1ccc(C(=O)N[C@@H](CCCNC(=N)N[N+](=O)[O-])C(=O)N[C@@H](CC(C)C)B2O[C@@H]3C[C@@H]4C[C@@H](C4(C)C)[C@]3(C)O2)cc1 [D.3.130, 4-Heptylbenzamide,N-[(1S)-1-[[[(1R)-1-[(3aS,4S,6S,7aR)-hexahydro-3a,5,5-trimethyl-4,6-methano-1,3,2-benzodioxaborol-2-yl]-3-methylbutyl]amino]carbonyl]-4-[[imino(nitroamino)methyl]amino]butyl]]		< 10 nM
COC(=O)CCCC(=O)N[C@@H](CCCNC(=N)N[N+](=O)[O-])C(=O)N[C@@H](CC(C)C)B(O)O [E.1.10, Boronic acid, [(1R)-1-[[(2S)-5-[[imino(nitroamino)methyl]amino]-2-[[4-(methoxycarbonyl)butanoyl]amino]-1-oxopentyl]amino]-3-methylbutyl]]		< 10 nM
CCCCN1CCC(CCCC(=O)N[C@@H](CCCNC(=N)N[N+](=O)[O-])C(=O)N[C@@H](CC(C)C)B(O)O)CC1 [E.1.14, Boronic acid, [(1R)-1-[[(2S)-5-[[imino(nitroamino)methyl]amino]-2-[(1-oxo-4-(1-butylpiperidin-4-yl)butyl)amino]-1-oxopentyl]amino]-3-methylbutyl]]		< 10 nM
CCCCCCCCCC(=O)N[C@@H](CCCNC(=N)N[N+](=O)[O-])C(=O)N[C@@H](CC(C)C)B1O[C@H](C2CCCCC2)[C@@H](C2CCCCC2)O1 [F.1, Decanamide, N-[(1S)-1-[[[(1R)-1-[(4R,5R)-4,5-dicyclohexyl-[1,3,2]dioxaborolan-2-yl]-3-methylbutyl]amino]carbonyl]-4-[[imino(nitroamino)methyl]amino]butyl]-]		< 10 nM
